# Measurements reported in patent US4916122A, “3'-Azido-2',3'-dideoxyuridine anti-retroviral composition” (University of Georgia Research Foundation, Inc., priority 1987, dated 1990).
# Values joined by “and” are separate entries in the source; they are usually repeats but may differ in a detail not shown here. Equal values may be shown once. Read-outs that look alike come from different tables or passages of the source.
# Tests used:
# [1] = tested on: HIV-1 (Strain RF-II); experiment: Antiviral activity against HIV-1 in HeLa-T4 cells (Table 4); assay type: cell-based; settings: Human immunodeficiency virus 1, HeLaT4, HIV-1
# Procedure: Evaluation in Hela-T4 cells infected with HIV-1 (Strain RF-II)
# HeLa-T4 cells (described in Cell 47: 333, 1986) are maintained in Dulbecco's Modified Eagle medium containing 10% inactivated fetal calf serum, penicillin (100 U/ml) and streptomycin (100 μg/ml), and the antibiotic G418 (1 mg/ml). The cells are seeded onto a 96-well plate (2×10^4 cells/well per 0.1 ml), and two days later, the supernatant is removed and the virus added. After adsorption for 45 minutes, the inoculum is removed and the cells washed with phosphate-buffered saline (pH 7.2). The compounds at different concentration are then added in maintenance medium (containing 2% serum). […] The cells are fixed with a mixture of 5% glacial acetic acid/95% Ethanol for 15 minutes, and then stained with Giemsa (20% in PSB) for 4 hours. The plates are then washed and dried. The foci are then enumerated with a dissecting stereomicroscope.
# [2] = tested on: HIV (LAV-1); experiment: Median effective antiviral concentration against HIV (Table 5); assay type: cell-based; settings: Human immunodeficiency virus 1
# [3] = tested on: SIV (SMM); experiment: Median effective antiviral concentration against SIV (Table 5); assay type: cell-based, simian immunodeficiency virus; settings: Simian immunodeficiency virus
# Text: (§1) A comparison of the differences in median effective an tiviral concentrations between human, non-human primate, and murine retroviruses is shown in Table 5. […] A further comparison of the activity of several nucleoside analogues, including CS-87, against HIV-1 and SIV in human PBM cells is shown in FIG. 6. The effect of delayed treatment with AZT, CS-87 or CS-91 on the replication of HIV-1 and SIV in human PBM cells is shown in FIGS. 7a, b, and c.
# [4] = tested on: Friend (EY-10); experiment: Median effective antiviral concentration against Friend virus (Table 5); assay type: cell-based, murine retrovirus; settings: unidentified retrovirus, in Mus musculus
# Text: as §1
# [5] = tested on: Mouse ecotropic (Cas-Br-M); experiment: Median effective antiviral concentration against mouse ecotropic virus (Table 5); assay type: cell-based, murine retrovirus; settings: unidentified retrovirus
# Text: as §1
# [6] = tested on: HIV-1 and SIV; experiment: Effect of delayed treatment on replication of HIV-1 and SIV in human PBM cells (FIG. 7); assay type: cell-based, HIV-1; SIV
# Text: as §1
# [7] = tested on: NIH Swiss mice; settings: oral 0.5 mg/ml ad libitum, 67 days
# [8] = tested on: HIV; settings: in vitro
# [9] = tested on: uninfected cells; settings: CS-87 compared with AZT
# [10] = preliminary results, Yarchoan et al. 1986; cited from earlier work
# [11] = tested on: Friend Leukemia virus; settings: Ostertag et al.; Krieg et al.; cited from earlier work
# [12] = tested on: HIV-1; experiment: microbe, parasite or virus in culture; settings: Human immunodeficiency virus 1, PBMC, read-out: PBM (EC50)
# [13] = tested on: HIV-1 (Strain HTLV-III); experiment: Antiviral activity against HIV-1 in ATH-8 cells (Table 4); settings: Human immunodeficiency virus 1, 240 h, read-out: ATH-8 (MIC)
# [14] = tested on: HIV-1 p24; experiment: Inhibition of HIV replication in human PBM cells, p24 RIA (Table 3)
# [15] = tested on: HIV p24 and p41; experiment: Inhibition of HIV replication in human PBM cells, western blot analysis (Table 3)
# [16] = tested on: HIV-1 (strain LAV); experiment: Inhibition of HIV replication in human PBM cells, reverse transcriptase assay (Table 3)
# [17] = target: T1, Host cell α-DNA pol (Homo sapiens, UniProt P09884); experiment: Effect of 5'-triphosphates on alpha DNA polymerase (Table 6); assay type: biochemical; settings: K1 host cell α-DNA pol / K1 HIV RT
# T1 sequence (P09884 1-1462): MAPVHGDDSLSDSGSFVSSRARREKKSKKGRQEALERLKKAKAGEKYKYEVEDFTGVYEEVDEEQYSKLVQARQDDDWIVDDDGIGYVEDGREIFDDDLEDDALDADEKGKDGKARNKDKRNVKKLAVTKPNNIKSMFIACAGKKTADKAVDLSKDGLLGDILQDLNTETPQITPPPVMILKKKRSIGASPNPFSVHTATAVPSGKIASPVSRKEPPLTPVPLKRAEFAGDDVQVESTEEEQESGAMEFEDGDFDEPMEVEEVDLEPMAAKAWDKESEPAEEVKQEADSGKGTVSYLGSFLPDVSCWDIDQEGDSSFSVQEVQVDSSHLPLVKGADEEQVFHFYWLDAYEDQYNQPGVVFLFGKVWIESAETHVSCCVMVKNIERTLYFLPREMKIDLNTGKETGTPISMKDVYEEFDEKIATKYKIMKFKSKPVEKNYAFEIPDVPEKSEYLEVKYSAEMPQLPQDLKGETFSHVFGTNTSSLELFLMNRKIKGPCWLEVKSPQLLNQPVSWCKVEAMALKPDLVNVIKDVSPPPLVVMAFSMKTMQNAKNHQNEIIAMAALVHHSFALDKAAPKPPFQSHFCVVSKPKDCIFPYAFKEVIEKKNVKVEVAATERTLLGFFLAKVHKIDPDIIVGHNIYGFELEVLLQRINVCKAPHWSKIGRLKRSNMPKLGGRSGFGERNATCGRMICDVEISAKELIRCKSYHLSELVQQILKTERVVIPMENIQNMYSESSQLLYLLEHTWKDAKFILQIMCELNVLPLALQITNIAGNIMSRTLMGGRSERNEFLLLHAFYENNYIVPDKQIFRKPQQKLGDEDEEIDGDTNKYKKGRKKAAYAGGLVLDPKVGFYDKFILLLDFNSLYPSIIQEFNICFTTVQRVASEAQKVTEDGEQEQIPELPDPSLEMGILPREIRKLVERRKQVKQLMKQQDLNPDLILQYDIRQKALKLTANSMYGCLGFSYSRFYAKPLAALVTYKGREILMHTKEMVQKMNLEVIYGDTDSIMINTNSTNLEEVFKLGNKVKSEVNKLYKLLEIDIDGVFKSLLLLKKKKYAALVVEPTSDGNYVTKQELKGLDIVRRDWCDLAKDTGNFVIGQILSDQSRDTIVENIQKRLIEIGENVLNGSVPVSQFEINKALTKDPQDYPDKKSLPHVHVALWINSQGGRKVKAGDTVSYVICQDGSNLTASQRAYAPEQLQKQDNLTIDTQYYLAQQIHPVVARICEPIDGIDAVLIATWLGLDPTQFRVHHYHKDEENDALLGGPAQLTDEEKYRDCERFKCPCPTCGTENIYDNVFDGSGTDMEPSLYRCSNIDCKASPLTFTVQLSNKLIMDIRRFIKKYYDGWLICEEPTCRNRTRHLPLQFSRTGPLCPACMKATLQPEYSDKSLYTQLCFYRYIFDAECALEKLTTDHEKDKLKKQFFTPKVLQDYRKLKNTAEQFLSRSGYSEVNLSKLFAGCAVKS
# [18] = target: T2, HIV RT (Human immunodeficiency virus type 1 group M subtype B, UniProt P03367); settings: 5'-triphosphate; according to Furman et al.; read-out: HIV RT K1; cited from earlier work
# T2 construct: HIV reverse transcriptase
# [19] = target: T1, Host cell α-DNA pol; settings: 5'-triphosphate; according to Furman et al.; read-out: Host cell α-DNA pol K1; cited from earlier work
# [20] = Effect on weight of uninfected BALB/c mice (FIG. 3); assay type: in vivo, mouse; settings: compared with each other and control
# [21] = individual mouse, listed as AzT
# [22] = individual mouse, listed as Azt
# [23] = Human immunodeficiency virus 1, PBMC, in Homo sapiens, read-out: RIA p24 % Inhibition
# [24] = Human immunodeficiency virus 1, PBMC, in Homo sapiens, read-out: RT % Inhibition (corrected)
smiles,measurement,setting,value
"Cc1cn([C@H]2C[C@H](N=[N+]=[N-])[C@@H](CO)O2)c(=O)[nH]c1=O [AZT, 3'-azido-3'-deoxythymidine, reference compound]",EC50,[1],340 nM
same,EC50,[2],2 nM
same,EC50,[3],2 nM
same,EC50,[4],4 nM
same,EC50,[5],7 nM
same,effect of delayed treatment on replication of HIV-1 and SIV,[6],time of administration is critical to the effectiveness of the treatment
same,Hct,[7]; Mean of group,28.7%
same,Hgb,[7]; Mean of group,9.2 g/dL
same,MCH,[7]; Mean of group,21.4 pg
same,MCHC,[7]; Mean of group,32.0 g/dL
same,MCV,[7]; Mean of group,66.8 fL
same,PLT,[7]; Mean of group,1.2 × 10^6
same,RBC,[7]; Mean of group,4.3 × 10^6
same,RDW,[7]; Mean of group,23.4%
same,WBC,[7]; Mean of group,6.6 × 10^3
same,Hct,[7]; [21],28.4% and 35.0%
same,Hgb,[7]; [21],9.1 g/dL and 11.0 g/dL
same,MCH,[7]; [21],22.1 pg and 21.2 pg
same,MCHC,[7]; [21],32.1 g/dL and 31.4 g/dL
same,MCV,[7]; [21],68.9 fL and 67.4 fL
same,PLT,[7]; [21],1.076 × 10^6 and 1.292 × 10^6
same,RBC,[7]; [21],4.1 × 10^6 and 5.2 × 10^6
same,RDW,[7]; [21],29.9% and 17.8%
same,WBC,[7]; [21],4.5 × 10^3 and 8.8 × 10^3
same,Hct,[7]; [22],21.1% and 30.1%
same,Hgb,[7]; [22],6.9 g/dL and 9.6 g/dL
same,MCH,[7]; [22],20.5 pg and 21.6 pg
same,MCHC,[7]; [22],32.6 g/dL and 31.9 g/dL
same,MCV,[7]; [22],62.9 fL and 67.8 fL
same,PLT,[7]; [22],1.187 × 10^6 and 1.112 × 10^6
same,RBC,[7]; [22],3.4 × 10^6 and 4.4 × 10^6
same,RDW,[7]; [22],24.6% and 21.3%
same,WBC,[7]; [22],5.2 × 10^3 and 7.9 × 10^3
same,"activity against HIV, in words",[8],somewhat more active than CS-87
same,cytotoxicity / toxicity in words,[9],much greater toxicity
same,toxicity in a clinical setting,[10],exhibits toxicity
same,activity against Friend Leukemia virus,[11],activity against Friend Leukemia virus
same,EC50,[12],2 nM
same,MIC,[13],0.32 µM
same,RIA p24 (Dupont kit),[14]; 0.01 μM,4.39 ng/mL
same,RIA p24 (Dupont kit),[14]; 0.1 μM,0.51 ng/mL
same,RIA p24 (Dupont kit),[14]; 1 μM,0.18 ng/mL
same,inhibition at 0.01 µM,[14]; [23],81.8%
same,inhibition at 0.1 µM,[14]; [23],97.9%
same,inhibition at 1 µM,[14]; [23],99.3%
same,Western blot p24 (band intensity),[15]; 0.01 μM,2+
same,Western blot p41 (band intensity),[15]; 0.01 μM,1+
same,Western blot p24 (band intensity),[15]; 0.1 μM,0
same,Western blot p41 (band intensity),[15]; 0.1 μM,0
same,Western blot p24 (band intensity),[15]; 1 μM,0
same,Western blot p41 (band intensity),[15]; 1 μM,0
same,RT: Mean DPM/ml on day 5 (3 day old cells),[16]; 0.01 μM,"65,208 DPM/ml"
same,RT: Mean DPM/ml on day 5 (3 day old cells),[16]; 0.1 μM,"6,144 DPM/ml"
same,RT: Mean DPM/ml on day 5 (3 day old cells),[16]; 1 μM,"2,304 DPM/ml"
same,inhibition at 0.01 µM,[16]; [24],89.8%
same,inhibition at 0.1 µM,[16]; [24],99.1%
same,inhibition at 1 µM,[16]; [24],99.7%
Cc1cn([C@H]2C[C@H](N=[N+]=[N-])[C@@H](CO[P@](=O)(O)O[P@](=O)(O)OP(=O)(O)O)O2)c(=O)[nH]c1=O [AZT-TP],Ratio: Cellular/HIV,[17],"5,750"
same,Ki,[18],40 nM
same,Ki,[19],230000 nM
"CCc1cn([C@H]2C[C@H](N=[N+]=[N-])[C@@H](CO)O2)c(=O)[nH]c1=O [CS-85, 3'-azido-2',3'-dideoxy-5-ethyl-uridine, reference compound]",effect on weight of uninfected BALB/c mice,[20],no significant difference
